Reference: patent US20220062166A1, “Self-Gelling Solutions for Administration of Therapeutics to the Inner Ear” (Spiral Therapeutics, Inc., priority 2019, published 2022)
Entries after “also recorded” stand apart in the source; their conditions may differ.

Tests used:
[1] = tested on: CisPt-induced hearing loss; test: Model of CisPt-induced hearing loss in rats (TT administration); assay type: in vivo, rat; conditions: TT administration of LPT99 in hydrogel, dose dependent
Experimental: The protective effect of LPT99 was evaluated 3 days […] administration by functional measures, such as auditory brainstem response (ABR) threshold shift, DPOAE, and expression of biomarkers of apoptosis in cochlea and cytocochleograms.

[2] = molecular target: T1, caspase 3 (Homo sapiens, UniProt P42574); test: Caspase 3 activation assay with recombinant proteins; assay type: biochemical; conditions: in %
T1 sequence (P42574 29-277): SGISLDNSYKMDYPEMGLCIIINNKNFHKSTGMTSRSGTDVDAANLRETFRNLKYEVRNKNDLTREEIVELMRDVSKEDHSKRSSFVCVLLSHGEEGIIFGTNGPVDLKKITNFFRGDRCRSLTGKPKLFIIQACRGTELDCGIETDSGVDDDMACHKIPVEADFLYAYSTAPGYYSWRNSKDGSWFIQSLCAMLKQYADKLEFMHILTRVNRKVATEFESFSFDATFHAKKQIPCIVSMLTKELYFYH
Experimental: (§1) The specificity of LPT99 was tested in vitro on Apaf1, caspase 3, and caspase 9 (proteins from the apoptotic cascade), and a broad panel of potential pharmacological targets.
(§2) LPT99 inhibited the formation of the apoptosome complex composed by recombinant Apaf1, cyt c, deoxyadenosine triphosphate (dATP), and caspase 9. This activity was measured as inhibition of caspase 3 activation. […] To evaluate the specificity of the inhibition, an assay of caspase 3 and 9 activation was set up with recombinant proteins. The inhibitions of caspase 3 and 9 were 7.6±14.7 and 5.3±3.5, respectively, for LPT99.

[3] = tested on: panel of receptors (44 GPCR and 4 non-GPCR), 4 ion channels, and 3 transporters; test: Off-target selectivity panel; assay type: binding; conditions: 10 μM
Experimental: (§3) To identify off-target activities of LPT99, its selectivity against a panel of receptors (44 G-protein-coupled receptors [GPCR] and 4 non-GPCR), 4 ion channels, and 3 transporters were analyzed. The cell line, HEI-OC1 (house ear institute organ of Corti 1), which expresses several characteristic markers of the organ of Corti sensory cells (Kalinec, et al. , Audiol. Neurootol. 2003, 8(4), 177-89), was used to evaluate the efficacy of LPT99 in preventing apoptosis due to […]. Cells were pre-incubated with LPT99, followed by […] for 24 hours.
(§4) For 14 of the tested targets—adenosine receptor 3 (A3); cholecystokinin: cholecystokinin receptor 1 (CCK1); melatonin receptor (MT1); neurokinin (NK2 and NK3); opioid (kOP and mOP); serotonin receptors (5HT-1A, 5HT-2A, 5HT−2B and 5HT−7); and vasopressin (V1A; Na+channel site 2 and Cl-GABA-gated channel)—the LPT99 affinity was >50%. At 1 μM, the inhibition of 13 of these targets was <50%, indicating a very low affinity with LPT99.

[4] = tested on: BALB/c 3T3 mouse fibroblasts; test: In vitro phototoxicity in BALB/c 3T3 mouse fibroblasts; assay type: cell-based; conditions: ≤100 μM
Experimental: An in vitro experiment was performed in BALB/c 3T3 mouse fibroblasts to determine the phototoxic potential of LPT99 at concentrations of ≤100 μM in 3T3L1 cells.

[5] = tested on: Cl-GABA-gated channel; test: Off-target panel: Cl- GABA-gated channel; assay type: binding
Experimental: as §3, §4

[6] = molecular target: T2, caspase 9 (Homo sapiens, UniProt P55211); test: Caspase 9 activation assay with recombinant proteins; assay type: biochemical; conditions: in %
T2 sequence (P55211 1-416): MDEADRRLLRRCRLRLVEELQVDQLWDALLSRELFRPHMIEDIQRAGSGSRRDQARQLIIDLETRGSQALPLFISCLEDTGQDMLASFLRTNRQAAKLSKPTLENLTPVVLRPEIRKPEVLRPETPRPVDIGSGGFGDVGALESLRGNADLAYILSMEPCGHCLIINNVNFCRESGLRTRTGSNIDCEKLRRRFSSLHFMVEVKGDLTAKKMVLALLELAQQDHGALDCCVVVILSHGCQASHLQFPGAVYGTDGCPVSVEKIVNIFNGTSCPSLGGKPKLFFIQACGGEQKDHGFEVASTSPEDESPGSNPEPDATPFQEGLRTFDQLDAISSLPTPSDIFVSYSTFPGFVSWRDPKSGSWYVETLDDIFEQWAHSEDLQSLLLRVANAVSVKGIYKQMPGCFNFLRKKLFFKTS
Experimental: as §1, §2

[7] = Cochlear and plasma distribution after TT administration in rats (UPLC-ESI/MS/MS); assay type: in vivo, rat
Description: Cochleae were harvested and rinsed at several timepoints after intratympanic injection of drug product. Drug concentration (y axis) in cochlear homogenates is expressed as nanograms LPT99 per gram of cochlear homogenate.
LPT99 cochlear distribution after TT administration was studied in rats. […] LPT99 concentration was quantified with an ultra-performance liquid chromatography tandem mass spectrometry (UPLC-ESI/MS/MS) system.
Distribution of LPT99 was investigated in cochlea and plasma after a single TT administration in rats. The inhibitor was administered at 50, 100, or 200 μM (dissolved in 5% hydroxypropyl cyclodextrin in physiological serum).

[8] = molecular target: T3, hERG (Homo sapiens, UniProt Q12809); test: hERG automated patch clamp assay in hERG-CHO cells; assay type: cell-based; conditions: detection limit 3.2 nM
T3 construct: expressed in transfected cells; host or cells: CHO
Description: The potential cardiotoxicity of LPT99 was investigated in an assay using the hERG-CHO cells transfected with the automated patch clamp assay.

[9] = Metabolic profile and stability in microsomal and S9 hepatic fractions; assay type: in vitro ADME, human, dog, rabbit, rat, and mouse
Description: The metabolic profile and stability of LPT99 was characterized in human, dog, rabbit, rat, and mouse microsomal and S9 fractions, and in human cytosolic fractions.

T3 sequence (Q12809 whole entry): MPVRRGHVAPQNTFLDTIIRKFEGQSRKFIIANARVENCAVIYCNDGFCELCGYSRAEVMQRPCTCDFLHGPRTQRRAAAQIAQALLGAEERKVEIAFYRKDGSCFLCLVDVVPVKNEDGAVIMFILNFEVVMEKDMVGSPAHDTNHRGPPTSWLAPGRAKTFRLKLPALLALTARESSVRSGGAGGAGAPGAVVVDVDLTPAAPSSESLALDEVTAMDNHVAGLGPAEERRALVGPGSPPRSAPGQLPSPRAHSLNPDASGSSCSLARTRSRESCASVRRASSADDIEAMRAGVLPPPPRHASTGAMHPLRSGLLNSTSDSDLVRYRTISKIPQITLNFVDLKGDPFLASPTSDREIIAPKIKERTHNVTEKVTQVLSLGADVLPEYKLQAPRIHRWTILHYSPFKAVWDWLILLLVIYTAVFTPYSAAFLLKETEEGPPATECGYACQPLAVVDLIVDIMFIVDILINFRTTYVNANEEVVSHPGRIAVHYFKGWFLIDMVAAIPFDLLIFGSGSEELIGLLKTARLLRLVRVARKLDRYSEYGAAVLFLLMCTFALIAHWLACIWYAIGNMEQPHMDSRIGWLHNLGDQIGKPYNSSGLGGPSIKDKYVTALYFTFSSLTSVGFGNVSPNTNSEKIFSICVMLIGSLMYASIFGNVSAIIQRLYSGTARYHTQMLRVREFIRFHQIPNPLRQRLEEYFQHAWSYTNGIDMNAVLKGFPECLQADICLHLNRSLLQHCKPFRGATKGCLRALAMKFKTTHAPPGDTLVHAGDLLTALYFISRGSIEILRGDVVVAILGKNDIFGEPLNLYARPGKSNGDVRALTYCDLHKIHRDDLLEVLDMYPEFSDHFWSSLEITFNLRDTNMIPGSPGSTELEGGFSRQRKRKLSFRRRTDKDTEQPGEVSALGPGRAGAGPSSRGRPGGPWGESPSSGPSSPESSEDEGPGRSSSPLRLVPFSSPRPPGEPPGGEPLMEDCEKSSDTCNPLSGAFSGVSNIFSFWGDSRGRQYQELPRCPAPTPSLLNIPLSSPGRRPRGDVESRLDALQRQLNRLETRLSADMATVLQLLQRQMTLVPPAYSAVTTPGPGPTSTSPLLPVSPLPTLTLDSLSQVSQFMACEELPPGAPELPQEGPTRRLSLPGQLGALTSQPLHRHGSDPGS

COc1ccc2[nH]cc(CCNC(=O)CC3C(=O)N(CCc4ccc(Cl)cc4Cl)CC(=O)N3CCc3cccs3)c2c1 (centres unmarked) [LPT99, 2-(4-(2,4-dichlorophenethyl)-3,6-dioxo-1-(2-(thiophen-2-yl)ethyl)piperazin-2-yl)-N-(2-(5-methoxy-1H-indol-3-yl)ethyl)acetamide]
protection against CisPt-induced hearing loss vs vehicle control [1]: protected against CisPt-induced hearing loss | inhibition of caspase 3 [2]: 7.6±14.7 | in vitro inhibition for 41 of the tested targets [3]: < 50% | cytotoxicity in presence or absence of ultraviolet-visible irradiation [4]: not cytotoxic | inhibition Cl-GABA-gated channel ([5]; 1 μM): < 50% | affinity (inhibition) Cl-GABA-gated channel ([5]; 10 μM): > 50% | inhibition of caspase 9 [6]: 5.3±3.5 | detection in administered cochleae ([7]; 0.5 and 1 hour, 50, 100, or 200 μM in 5% hydroxypropyl cyclodextrin): detected in all administered cochleae | LPT99 in plasma (not found; detection limit) ([7]; after TT administration of the LPT99 formulation in a hydrogel): < 2 ng/mL | concentrations in contralateral cochleae and plasma ([7]; all time points, 50, 100, or 200 μM in 5% hydroxypropyl cyclodextrin): BLLQ | LPT99 concentrations in plasma (BLLQ) ([7]; all time-points and doses): < 2 ng/mL | LPT99 concentrations in the contralateral cochleae (BLLQ) ([7]; all time-points and doses): < 3 ng/g | distribution to cochlea after TT administration ([7]; rats, FIG. 4): distributed locally to the cochlea; also recorded: distributed to cochlea in a dose-dependent manner | distribution to contralateral cochleae or plasma ([7]; rats, TT): No distribution to the contralateral cochleae or plasma was observed | safety margin (hERG IC50 vs plasma detection limit) [8]: > 1063 | number of metabolites formed through phase I biotransformation [9]: ≤ 9 | metabolized after 1 hour ([9]; microsomal and S9 hepatic fractions, all tested species): > 90%
